The text below walks through data of patent EP2899531B1, “Method for detecting a chiral analytes” (Jacobs University Bremen gGmbH, priority 2013, dated 2015).

Peptide text beside a SMILES is read from it.

The test system of one test is CB8-MDAP. The test can be described thus: Binding constants of chiral analytes with CB8-MDAP receptor complex, UV/Vis titration. The note with it: CB8-MDAP (100 µM), H2O, 22 °C; from UV/Vis titrations, estimated error ≤ 10%. From the text:
(§1) Bindungskonstanten zwischen CB8-Farbstoff-Komplexen und den in Tabelle 1 aufgeführten Analyten wurden mittels UV/Vis-Titration in H2O, sofern nicht anders angegeben, durchgeführt. Zu einer Lösung aus dem CB8-Farbstoff-Rezeptor wurde schrittweise eine Lösung des Analyten gegeben, und die UV/Vis-Spektren wurden aufgezeichnet. Die normalisierte Absorption bei 419 nm (CB8-MDAP) oder bei 443 nm (CB8-MDPP) wurde mit einer Gleichung für eine 1:1-Bindung mittels der Kleinstquadratmethode angepasst ([50]).

For test [1], the system named is CB8-MDPP. The test can be described thus: Binding constants of chiral analytes with CB8-MDPP receptor complex, UV/Vis titration. Conditions: CB8-MDPP (20 µM), H2O, 22 °C; from UV/Vis titrations, estimated error ≤ 10%.
Text: as §1

Test [2] has as its system CB8-MDPP. The test can be described thus: Binding constants of chiral analytes with CB8-MDPP receptor complex, ICD titration. Conditions: CB8-MDPP (20 µM), H2O, 22 °C; obtained by ICD titration. From the text: Die Bindungsaffinitäten der strukturell verschiedenartigen Analyten lagen im Bereich von 10^3 bis 10^6 M^-1, wodurch eine hochempfindliche Detektion ermöglicht wird. Die durch ICD-Titrationen ermittelten Bindungskonstanten bestätigten die durch UV/Vis-Messungen ermittelten. In allen Fällen fungiert CB8 als unverzichtbare Grundlage für die ICD-Effekte. […] Wie erwartet, ergab ein anderer Reporter-Farbstoff, MDAP oder MVE, jeweils ein anderes ICD-Spektrum, jedoch bei gleichermaßen niedriger Analytenkonzentration (40-100 µM, im Vergleich zu 20 µM, s. Tabelle 4, Fig. 3).

For the compound `N[C@@H](CC(=O)O)C(=O)N[C@@H](Cc1ccccc1)C(=O)O` [AspPhe] (H-Asp-Phe-OH), the Ka is given as 0.8 10^3 M^-1 in the test on CB8-MDAP and 7 10^3 M^-1 in the test on CB8-MDPP [1].

For the compound `NCC(=O)N[C@@H](Cc1c[nH]c2ccccc12)C(=O)NCC(=O)O` [GlyTrpGly] (H-Gly-Trp-Gly-OH), in the test with CB8-MDPP [1], the Ka is 5000 10^3 M^-1. Consider `N[C@@H](CCC(=O)O)C(=O)N[C@@H](Cc1c[nH]c2ccccc12)C(=O)O` [GluTrp] (H-Glu-Trp-OH), for which the Ka with CB8-MDAP was 25 10^3 M^-1; with CB8-MDPP [1], 210 10^3 M^-1. On the same counts, the results for `N[C@@H](Cc1c[nH]c2ccccc12)C(=O)N1CCC[C@H]1C(=O)O` [TrpPro] (H-Trp-Pro-OH) are 50 10^3 M^-1 and 430 10^3 M^-1.

With `CC(C)[C@H](NC(=O)[C@@H](N)Cc1ccccc1)C(=O)O` [PheVal] (H-Phe-Val-OH), the figures for the Ka in the test with CB8-MDAP, with CB8-MDPP [1] and in the test on CB8-MDPP [2] were 11 10^3 M^-1, 1500 10^3 M^-1 and 1400^d 10^3 M^-1, respectively. Regarding `N[C@@H](Cc1ccccc1)C(=O)NCC(=O)O` [PheGly] (H-Phe-Gly-OH), the Ka with CB8-MDAP is reported as 25 10^3 M^-1; in the test on CB8-MDPP [1], 1900 10^3 M^-1. With `N[C@@H](Cc1c[nH]c2ccccc12)C(=O)NCC(=O)NCC(=O)O` [TrpGlyGly] (H-Trp-Gly-Gly-OH), the Ka in the test on CB8-MDPP [1] was 200 10^3 M^-1.
